Results published in patent US8124610B2, “Sodium channel inhibitors” (Icagen Inc., priority 2007, dated 2012).
Read-outs that look alike come from different tables or passages of the source.

What was measured:
hSCN3A = biological target: T1, hSCN3A (Homo sapiens, UniProt Q9NY46); assay: Whole-cell patch-clamp electrophysiology (conventional or PatchXpress), HEK cells expressing hSCN3A, estimated IC-50; type: cell-based; conditions: read-out: SCN3A EIC-50
T1 construct: expressed in transfected cells
T1 sequence (Q9NY46 whole entry): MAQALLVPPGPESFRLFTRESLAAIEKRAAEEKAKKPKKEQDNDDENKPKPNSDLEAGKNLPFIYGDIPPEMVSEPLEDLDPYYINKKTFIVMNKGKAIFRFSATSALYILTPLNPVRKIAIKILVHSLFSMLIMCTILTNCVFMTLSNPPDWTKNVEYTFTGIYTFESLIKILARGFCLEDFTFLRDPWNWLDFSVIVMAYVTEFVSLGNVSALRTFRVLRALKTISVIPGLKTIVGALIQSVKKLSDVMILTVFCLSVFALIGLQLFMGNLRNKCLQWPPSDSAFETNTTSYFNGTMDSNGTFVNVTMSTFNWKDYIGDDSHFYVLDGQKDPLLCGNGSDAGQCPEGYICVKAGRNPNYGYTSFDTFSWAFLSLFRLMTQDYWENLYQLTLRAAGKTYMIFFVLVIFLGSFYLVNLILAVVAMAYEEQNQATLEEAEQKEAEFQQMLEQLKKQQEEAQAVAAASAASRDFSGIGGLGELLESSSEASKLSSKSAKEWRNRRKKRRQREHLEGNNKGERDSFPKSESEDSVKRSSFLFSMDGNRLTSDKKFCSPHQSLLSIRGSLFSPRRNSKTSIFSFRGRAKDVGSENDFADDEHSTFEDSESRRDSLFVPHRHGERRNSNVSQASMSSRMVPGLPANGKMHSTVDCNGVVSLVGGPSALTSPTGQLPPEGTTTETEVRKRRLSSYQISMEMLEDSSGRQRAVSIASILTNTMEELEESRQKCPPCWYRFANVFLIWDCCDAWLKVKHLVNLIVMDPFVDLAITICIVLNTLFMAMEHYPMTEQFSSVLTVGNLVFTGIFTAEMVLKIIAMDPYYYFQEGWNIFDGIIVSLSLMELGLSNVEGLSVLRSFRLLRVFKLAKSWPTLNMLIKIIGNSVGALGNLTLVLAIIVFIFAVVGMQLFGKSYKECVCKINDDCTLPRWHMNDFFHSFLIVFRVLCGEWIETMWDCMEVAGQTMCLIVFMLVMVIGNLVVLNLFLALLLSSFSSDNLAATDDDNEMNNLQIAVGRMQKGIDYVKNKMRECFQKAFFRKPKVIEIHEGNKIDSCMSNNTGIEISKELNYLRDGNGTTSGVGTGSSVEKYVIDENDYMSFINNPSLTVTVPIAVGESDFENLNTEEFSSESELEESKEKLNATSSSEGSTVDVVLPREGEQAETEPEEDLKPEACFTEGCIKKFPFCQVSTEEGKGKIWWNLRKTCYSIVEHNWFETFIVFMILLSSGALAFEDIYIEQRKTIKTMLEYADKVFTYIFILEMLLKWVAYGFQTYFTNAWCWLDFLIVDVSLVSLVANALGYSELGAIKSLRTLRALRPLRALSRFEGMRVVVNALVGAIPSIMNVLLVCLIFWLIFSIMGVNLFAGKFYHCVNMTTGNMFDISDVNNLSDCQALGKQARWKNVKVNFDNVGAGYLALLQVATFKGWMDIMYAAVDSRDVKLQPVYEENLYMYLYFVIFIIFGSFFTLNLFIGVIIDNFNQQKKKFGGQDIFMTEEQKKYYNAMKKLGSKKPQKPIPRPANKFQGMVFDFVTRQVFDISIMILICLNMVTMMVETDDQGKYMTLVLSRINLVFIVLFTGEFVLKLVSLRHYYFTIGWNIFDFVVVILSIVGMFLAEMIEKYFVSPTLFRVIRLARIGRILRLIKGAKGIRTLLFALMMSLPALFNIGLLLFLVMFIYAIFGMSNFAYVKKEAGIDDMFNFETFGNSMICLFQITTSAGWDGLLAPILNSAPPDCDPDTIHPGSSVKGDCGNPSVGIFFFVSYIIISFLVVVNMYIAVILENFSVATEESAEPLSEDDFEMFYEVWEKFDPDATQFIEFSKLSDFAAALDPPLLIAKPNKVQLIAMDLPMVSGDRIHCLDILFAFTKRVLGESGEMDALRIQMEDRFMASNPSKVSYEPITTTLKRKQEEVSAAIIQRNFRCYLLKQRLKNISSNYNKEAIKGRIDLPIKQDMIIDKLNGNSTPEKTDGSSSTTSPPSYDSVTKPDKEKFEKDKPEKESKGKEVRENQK
Procedure: Human Embryonic Kidney (HEK) cells were transfected with hSCN3A or hSCN9A constructs using lipofectamine reagent (Invitrogen), using standard techniques. Cells stably expressing the hSCN3A or hSCN9A constructs were identified by their resistance to G-418 (400 μg/ml). Clones were screened for expression using the whole-cell voltage-clamp technique. HEK cells stably transfected with hSCN3A or hSCN9A were maintained in DMEM medium supplemented with 10% heat-inactivated fetal bovine serum and 400 μg/ml G418 sulfate in an incubator at 37° C. with a humidified atmosphere of 10% CO2. For HTS, cells were harvested from flasks by trypsinization and replated in an appropriate multi-well plate (typically 96 or 384 wells/plate) such that confluence would be achieved within 24 hours of plating. For electrophysiological studies, cells were removed from the culture flask by brief trypsinization and replated at low density onto glass cover slips. Cells were typically used for electrophysiological experiments within 24 to 72 h after plating. Cover slips containing HEK cells expressing hSCN3A or hSCN9A were placed in a bath on the stage of an inverted microscope and perfused (approximately 1 ml/min) with extracellular solution of the following composition: 138 mM NaCl, 2 mM CaCl2, 5.4 mM KCl, 1 mM MgCl2, 10 mM glucose, and 10 mM HEPES, pH 7.4, with NaOH. […] All recordings were made at room temperature (22-24° C.) using AXOPATCH 200B amplifiers and PCLAMP software (Axon Instruments, Burlingame, Calif.) or PatchXpress 7000 hardware and associated software (Axon Instruments, Burlingame, Calif.). hSCN3A or hSCN9A currents in HEK cells were measured using the whole-cell configuration of the patch-clamp technique (Hamill et al., 1981). […] As a result, voltage errors were negligible and no correction was applied. Current records were acquired at 20 to 50 KHz and filtered at 5 to 10 KHz. HEK cells stably transfected with hSCN3A or hSCN9A were viewed under Hoffman contrast optics and placed in front of an array of flow pipes emitting either control or compound-containing extracellular solutions. All compounds were dissolved in dimethyl sulfoxide to make 10 mM stock solutions, which were then diluted into extracellular solution to attain the final concentrations desired. […] The voltage-dependence of inactivation was determined by applying a series of depolarizing prepulses (8 sec long in 10 mV increments) from a negative holding potential. The voltage was then immediately stepped to 0 mV to assess the magnitude of the sodium current. Currents elicited at 0 mV were plotted as a function of prepulse potential to allow estimation of the voltage midpoint of inactivation (V1/2). Cells were then voltage clamped at the empirically determined V1/2. Compounds were tested for their ability to inhibit hSCN3A or hSCN9A sodium channels by activating the channel with a 20 msec voltage step to 0 mV following an 8 second conditioning prepulse to the empirically determined V1-2 (Table B). Compound effect (% inhibition) was determined by difference in current amplitude before and after application of test compounds. […] In some cases electrophysiological assays were conducted with PatchXpress 7000 hardware and associated software (Molecular Devices Corp) (Table B). All assay buffers and solutions were identical to those used in conventional whole-cell voltage clamp experiments described above. hSCN3A or hSCN9A containing cells were grown as above to 50%-80% confluency and harvested by trypsinization. Trypsinized cells were washed and resuspended in extracellular buffer at a concentration of 1×10^6 cells/ml. The onboard liquid handling facility of the PatchXpress was used for dispensing cells and application of test compounds. Determination of the voltage midpoint of inactivation was as described for conventional whole-cell recordings. Cells were then voltage-clamped to the empirically determined V1/2 and current was activated by a 20 msec voltage step to 0 mV.

hSCN9A = biological target: T2, hSCN9A (Homo sapiens, UniProt Q15858); assay: Whole-cell patch-clamp electrophysiology (conventional or PatchXpress), HEK cells expressing hSCN9A, estimated IC-50; type: cell-based; conditions: read-out: SCN9A EIC-50
T2 construct: expressed in transfected cells
T2 sequence (Q15858 whole entry): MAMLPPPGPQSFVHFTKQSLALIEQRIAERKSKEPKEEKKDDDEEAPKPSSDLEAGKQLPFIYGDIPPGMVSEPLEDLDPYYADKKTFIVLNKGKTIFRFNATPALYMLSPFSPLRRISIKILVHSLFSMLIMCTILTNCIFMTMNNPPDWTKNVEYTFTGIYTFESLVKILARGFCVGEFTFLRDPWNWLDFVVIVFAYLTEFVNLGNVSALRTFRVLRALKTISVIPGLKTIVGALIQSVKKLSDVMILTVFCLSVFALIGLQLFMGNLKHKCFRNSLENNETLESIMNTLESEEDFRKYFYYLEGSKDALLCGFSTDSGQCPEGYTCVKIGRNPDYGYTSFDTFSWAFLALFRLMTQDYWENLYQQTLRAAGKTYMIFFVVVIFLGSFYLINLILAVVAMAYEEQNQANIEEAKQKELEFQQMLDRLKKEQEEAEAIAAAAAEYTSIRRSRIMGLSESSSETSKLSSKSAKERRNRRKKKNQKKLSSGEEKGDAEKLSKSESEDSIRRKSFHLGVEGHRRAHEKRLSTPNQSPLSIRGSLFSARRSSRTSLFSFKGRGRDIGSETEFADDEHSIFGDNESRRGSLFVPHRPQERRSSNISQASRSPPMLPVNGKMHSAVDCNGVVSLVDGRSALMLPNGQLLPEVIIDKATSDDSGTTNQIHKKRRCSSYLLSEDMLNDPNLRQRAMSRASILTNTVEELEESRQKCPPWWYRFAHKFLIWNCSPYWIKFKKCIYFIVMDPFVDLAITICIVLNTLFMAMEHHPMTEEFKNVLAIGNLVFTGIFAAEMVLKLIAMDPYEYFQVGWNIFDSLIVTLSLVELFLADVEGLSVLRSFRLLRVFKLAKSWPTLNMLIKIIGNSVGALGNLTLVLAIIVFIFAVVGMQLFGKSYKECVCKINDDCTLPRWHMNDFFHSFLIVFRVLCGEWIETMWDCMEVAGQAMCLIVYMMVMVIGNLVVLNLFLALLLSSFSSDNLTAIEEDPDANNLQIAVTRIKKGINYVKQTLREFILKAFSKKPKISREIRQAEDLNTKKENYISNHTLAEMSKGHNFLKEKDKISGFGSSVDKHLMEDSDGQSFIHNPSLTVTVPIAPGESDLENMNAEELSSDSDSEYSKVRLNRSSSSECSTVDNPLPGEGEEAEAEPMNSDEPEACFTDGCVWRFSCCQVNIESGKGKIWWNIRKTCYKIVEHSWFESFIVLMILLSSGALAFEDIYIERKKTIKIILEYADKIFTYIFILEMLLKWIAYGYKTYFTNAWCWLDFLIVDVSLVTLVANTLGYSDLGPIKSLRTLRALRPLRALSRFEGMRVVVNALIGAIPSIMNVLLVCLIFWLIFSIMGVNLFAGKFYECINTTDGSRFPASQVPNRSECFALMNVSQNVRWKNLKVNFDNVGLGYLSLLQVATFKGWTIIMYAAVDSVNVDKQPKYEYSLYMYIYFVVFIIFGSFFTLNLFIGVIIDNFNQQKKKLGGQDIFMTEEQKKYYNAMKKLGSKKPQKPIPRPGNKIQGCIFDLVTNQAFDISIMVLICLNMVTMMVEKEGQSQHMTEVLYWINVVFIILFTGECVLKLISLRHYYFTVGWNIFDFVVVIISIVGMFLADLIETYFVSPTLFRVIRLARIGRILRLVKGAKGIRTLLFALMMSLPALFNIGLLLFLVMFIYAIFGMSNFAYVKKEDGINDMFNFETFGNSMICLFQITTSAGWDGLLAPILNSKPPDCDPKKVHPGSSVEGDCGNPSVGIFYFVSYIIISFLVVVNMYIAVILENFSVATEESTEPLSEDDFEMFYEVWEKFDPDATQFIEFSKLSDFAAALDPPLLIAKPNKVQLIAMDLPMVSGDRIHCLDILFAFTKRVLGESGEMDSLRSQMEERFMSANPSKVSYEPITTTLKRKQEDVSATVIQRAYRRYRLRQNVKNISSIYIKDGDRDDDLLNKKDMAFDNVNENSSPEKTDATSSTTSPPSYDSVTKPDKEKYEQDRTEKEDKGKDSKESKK
Outline: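 Stably transfected HEK cells recorded by whole-cell voltage clamp (manual or PatchXpress) at 22–24 °C in pH 7.4 HEPES-buffered extracellular solution. Cells held at the empirically determined inactivation V1/2 after an 8 s prepulse, then stepped to 0 mV for 20 ms; % inhibition from current amplitude before vs after compound.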

[1] = Table V, estimated IC-50 from single point electrophysiology, cells clamped at V1/2
[2] = estimated IC-50, HEK cells expressing hSCN3A, class symbols or bounds
[3] = estimated IC-50, HEK cells expressing hSCN9A, class symbols or bounds
[4] = commercial compounds (second Table VI), estimated IC-50 from single point electrophysiology

Row | SMILES | IC50 (hSCN3A; [2]) | IC50 (hSCN9A; [3]) | further results
1 | Cc1cc(Nc2ccc(S(=O)(=O)Nc3nccs3)cc2)n(-c2ccccc2)n1 [Compound 20, 4-(3-methyl-1-phenyl-1H-pyrazol-5-ylamino)-N-(thiazol-2-yl)benzenesulfonamide] |  |  | IC50 (hSCN3A; [1]): < 2000 nM; IC50 (hSCN9A; [1]): 2000 to 10000 nM
2 | Cc1nnc(Nc2ccc(S(=O)(=O)Nc3nccs3)cc2)c2ccccc12 [Compound 39, 4-(4-methylphthalazin-1-ylamino)-N-(thiazol-2-yl)benzenesulfonamide, reference compound] |  |  | IC50 (hSCN3A; [4]): > 1000 nM; IC50 (hSCN9A; [4]): > 3000 nM
3 | Cc1cnc(NS(=O)(=O)c2ccc(Nc3nc(Cc4ccc(Cl)cc4)cs3)cc2F)s1 [Compound 108, 4-(4-(4-chlorobenzyl)thiazol-2-ylamino)-2-fluoro-N-(5-methylthiazol-2-yl)benzenesulfonamide] | 2000 to 10000 nM | 2000 to 10000 nM | 
4 | COc1ccc(C(=O)Cn2cc3cc(S(=O)(=O)Nc4nccs4)ccc3n2)c(OC)c1 [Compound 277, 2-(2-(2,4-dimethoxyphenyl)-2-oxoethyl)-N-(thiazol-2-yl)-2H-indazole-5-sulfonamide] | > 1000 nM | < 2000 nM | 
5 | O=S(=O)(Nc1nccs1)c1ccc(Nc2cc(C3CC3)nn2-c2ccccc2)c(F)c1 [Compound 36, 4-(3-cyclopropyl-1-phenyl-1H-pyrazol-5-ylamino)-3-fluoro-N-(thiazol-2-yl)benzenesulfonamide] |  |  | IC50 (hSCN3A; [1]): < 2000 nM; IC50 (hSCN9A; [1]): < 2000 nM
6 | Cn1nc(C(C)(C)C)cc1Nc1ccc(S(=O)(=O)Nc2nccs2)cc1 [Compound 17, 4-(3-Tert-butyl-1-methyl-1H-pyrazol-5-ylamino)-N-(thiazol-2-yl)benzenesulfonamide] |  |  | IC50 (hSCN3A; [1]): < 2000 nM; IC50 (hSCN9A; [1]): 2000 to 10000 nM
7 | CC(C)(C)c1csc(Nc2ccc(S(=O)(=O)Nc3nccs3)c(C#N)c2)n1 [Compound 113, 4-(4-tert-butylthiazol-2-ylamino)-2-cyano-N-(thiazol-2-yl)benzenesulfonamide] | 2000 to 10000 nM | > 1000 nM | 
8 | CC(C)(C)n1nc(Nc2ccc(S(=O)(=O)Nc3nccs3)cc2)nc1N [Compound 19, 4-(5-Amino-1-tert-butyl-1H-1,2,4-triazol-3-ylamino)-N-(thiazol-2-yl)benzenesulfonamide] |  |  | IC50 (hSCN3A; [1]): < 2000 nM; IC50 (hSCN9A; [1]): > 10000 nM
9 | COc1ccnc(Nc2ccc(S(=O)(=O)Nc3nccs3)cc2)n1 [Compound 85, 4-(4-methoxypyrimidin-2-ylamino)-N-(thiazol-2-yl)benzenesulfonamide] | > 1000 nM | > 3000 nM | 
10 | Cc1nc(Nc2ccc(S(=O)(=O)Nc3nccs3)c(F)c2)sc1C(C)(C)C [Compound 13, 4-(5-tert-butyl-4-methylthiazol-2-ylamino)-2-fluoro-N-(thiazol-2-yl)benzenesulfonamide] |  |  | IC50 (hSCN3A; [1]): < 2000 nM; IC50 (hSCN9A; [1]): < 2000 nM
11 | O=S(=O)(Nc1nccs1)c1ccc(Nc2nc(C(c3ccccc3)c3ccccc3)cs2)cc1 [Compound 2, 4-(4-Benzhydrylthiazol-2-ylamino)-N-(thiazol-2-yl)benzenesulfonamide] |  |  | IC50 (hSCN3A; [1]): < 2000 nM; IC50 (hSCN9A; [1]): 2000 to 10000 nM
12 | O=S(=O)(Nc1nccs1)c1ccc(Nc2nc(CN3CCC[C@H]3CN3CCCC3)cs2)cc1 [Compound 58, (S)-4-(4-((2-(pyrrolidin-1-ylmethyl)pyrrolidin-1-yl)methyl)thiazol-2-ylamino)-N-(thiazol-2-yl)benzenesulfonamide] | > 1000 nM | 2000 to 10000 nM | 

Further lines, with some results ahead:

Row | IC50 (hSCN3A; [2]) | IC50 (hSCN9A; [3]) | SMILES | further results
13 | < 2000 nM | 2000 to 10000 nM | O=S(=O)(Nc1nccs1)c1ccc(Nc2ccnn2-c2ccccc2)cc1 [Compound 151, 4-(1-phenyl-1H-pyrazol-5-ylamino)-N-(thiazol-2-yl)benzenesulfonamide] | 
14 | < 2000 nM | > 1000 nM | O=S(=O)(Nc1nccs1)c1ccc(Nc2nc(COc3ccccc3)cs2)cc1 [Compound 48, 4-(4-(phenoxymethyl)thiazol-2-ylamino)-N-(thiazol-2-yl)benzenesulfonamide] | 
15 | < 2000 nM | < 2000 nM | Cc1cc(S(=O)(=O)Nc2nccs2)c(F)cc1Nc1ccn(Cc2ccc(Cl)cc2)n1 [Compound 269, 4-(1-(4-chlorobenzyl)-1H-pyrazol-3-ylamino)-2-fluoro-5-methyl-N-(thiazol-2-yl)benzenesulfonamide] | 
16 | < 2000 nM | 2000 to 10000 nM | O=S(=O)(Nc1nccs1)c1ccc(Nc2nc(CCCOc3ccccc3)cs2)cc1 [Compound 50, 4-(4-(3-phenoxypropyl)thiazol-2-ylamino)-N-(thiazol-2-yl)benzenesulfonamide] | 
17 | < 2000 nM | < 2000 nM | O=S(=O)(Nc1nccs1)c1ccc(Nc2nc(Cc3ccc(Cl)cc3)cs2)cc1 [Compound 91, 4-(4-(4-chlorobenzyl)thiazol-2-ylamino)-N-(thiazol-2-yl)benzenesulfonamide] | 
18 | < 2000 nM | < 2000 nM | Cc1cc(Nc2ccc(S(=O)(=O)Nc3nccs3)c(F)c2)n(-c2ccc(F)cc2Cl)n1 [Compound 182, 4-(1-(2-chloro-4-fluorophenyl)-3-methyl-1H-pyrazol-5-ylamino)-2-fluoro-N-(thiazol-2-yl)benzenesulfonamide] | 
19 | < 2000 nM | < 2000 nM | Cc1cc(Nc2ccc(S(=O)(=O)Nc3nccs3)c(F)c2)n(-c2cccc(Cl)c2)n1 [Compound 152, 4-(1-(3-chlorophenyl)-3-methyl-1H-pyrazol-5-ylamino)-2-fluoro-N-(thiazol-2-yl)benzenesulfonamide] | 
20 | < 2000 nM | < 2000 nM | O=S(=O)(Nc1nccs1)c1ccc(Nc2nc(COc3ccc(Cl)cc3Cl)cs2)cc1 [Compound 95, 4-(4-((2,4-dichlorophenoxy)methyl)thiazol-2-ylamino)-N-(thiazol-2-yl)benzenesulfonamide] | 
21 | < 2000 nM | 2000 to 10000 nM | O=[N+]([O-])c1ccc(CNCc2csc(Nc3ccc(S(=O)(=O)Nc4nccs4)cc3)n2)cc1 [Compound 72, 4-(4-((4-nitrobenzylamino)methyl)thiazol-2-ylamino)-N-(thiazol-2-yl)benzenesulfonamide] | 
22 | < 2000 nM | < 2000 nM | Cn1nc(CC2CCCCC2)cc1Nc1ccc(S(=O)(=O)Nc2nccs2)c(O)c1 [Compound 134, 4-(3-(cyclohexylmethyl)-1-methyl-1H-pyrazol-5-ylamino)-2-hydroxy-N-(thiazol-2-yl)benzenesulfonamide] | 
23 | < 2000 nM | 2000 to 10000 nM | O=S(=O)(Nc1nccs1)c1ccc(Nc2nc(CNCc3ccc(C(F)(F)F)cc3)cs2)cc1 [Compound 71, N-(thiazol-2-yl)-4-(4-((4-(trifluoromethyl)benzylamino)methyl)thiazol-2-ylamino)benzenesulfonamide] | 
24 | < 2000 nM | 2000 to 10000 nM | CC(C)(C)n1nc(Cc2ccc(Cl)cc2)cc1Nc1ccc(S(=O)(=O)Nc2nncs2)cc1 [Compound 111, 4-(1-tert-butyl-3-(4-chlorobenzyl)-1H-pyrazol-5-ylamino)-N-(1,3,4-thiadiazol-2-yl)benzenesulfonamide] | 
25 | < 2000 nM | > 10000 nM | O=S(=O)(Nc1nccs1)c1ccc(Nc2nccc(OCc3ccccc3)n2)cc1 [Compound 45, 4-(4-(benzyloxy)pyrimidin-2-ylamino)-N-(thiazol-2-yl)benzenesulfonamide] | 
